{"source": "patent US8362031B2", "about": "“Lonidamine analogues and treatment of polycystic kidney disease” (University of Kansas, priority 2004, dated 2013)", "tested_on": "ADPKD cells", "assay": "Phalloidin staining of the actin cytoskeleton", "assay_type": "cell-based, human", "settings": "increasing concentrations", "description": "To determine if gamendazole treatment alters actin cytoskeleton dynamics, ADPKD cells were stained with phalloidin and examined by fluorescence microscopy. […] Briefly, ADPKD cells or M-1 cortical collecting duct cells were plated in a 4-well chamber slide in 5% FBS-containing medium. After 24 hours, the cells were treated with increasing concentrations of GMZ. Cells were fixed using 4% paraformaldehyde and permeabilized with 0.2% Triton-X 100. Cells were then incubated for 20 min with TRITC-conjugated phalloidin, washed with PBS and mounted with DAPI-containing mounting medium. Images were captured at 10× (FIG. 13A) or 60× (FIG. 13B), using the same exposure settings for treated and untreated cells. […] Blue (internal staining) indicates DAPI-stained nuclei."}
{"smiles": "O=C(O)CCc1nn(Cc2ccc(Cl)cc2Cl)c2cc(C(F)(F)F)ccc12", "note": "[GMZ, 3-[1-(2,4-dichlorobenzyl)-6-trifluoromethyl-1H-indazol-3-yl]-propionic acid]", "values": [{"measurement": "Cell morphology, actin cytoskeleton", "result": "smaller, without leading edges and with less filamentous actin"}]}
